ChEMBL document CHEMBL1201862, “PubChem BioAssay data set” (2004)
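The compound was tested at five concentrations on cells cultured in 96-well plates, with a 48-hour exposure period. Abbreviation: GI50, concentration required for 50% inhibition of growth.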 The source made the active and inactive calls. Cut-off read from the data, not from the text of the source: active = GI50 up to about 1.1 µM and inactive = higher.

Key:
Experiment in all cases: growth of human tumour cells (NCI), 48 h
ACHN = system: ACHN
HCC 2998 = system: HCC 2998
HL-60 = system: HL-60
HOP-62 = system: HOP-62
MDA-MB-435 = system: MDA-MB-435
Malme-3M = system: Malme-3M
NCI-H226 = system: NCI-H226
NCI-H522 = system: NCI-H522
OVCAR-3 = system: OVCAR-3
OVCAR-4 = system: OVCAR-4
RXF 393 = system: RXF 393
SF-295 = system: SF-295
SF-539 = system: SF-539
SK-MEL-28 = system: SK-MEL-28
SK-MEL-2 = system: SK-MEL-2
T47D = system: T47D
U-251 = system: U-251
UACC-62 = system: UACC-62
MCF7 = system: MCF7
SR = system: SR

Measured: GI50

C/C(=N/NC(=S)N(C)C)c1ccccc1O
inactive: ACHN 6.31 µM | HCC 2998 18.7 µM | HL-60 > 22.5 µM | HOP-62 5.81 µM | MDA-MB-435 21.6 µM | Malme-3M 7.26 µM | NCI-H226 > 23.7 µM | NCI-H522 9.86 µM | OVCAR-3 2.97 µM | OVCAR-4 11.3 µM | RXF 393 23 µM | SF-295 11.8 µM | SF-539 8.91 µM | SK-MEL-28 26.4 µM | SK-MEL-2 11.9 µM | T47D 14.5 µM | U-251 6.35 µM | UACC-62 6.46 µM

CCCC[S+]([O-])CCC(N)C(=O)O (stereo not drawn)
inactive: ACHN > 100 µM | HCC 2998 > 100 µM | HL-60 > 100 µM | HOP-62 > 100 µM | MCF7 > 100 µM | Malme-3M 1.94 µM | NCI-H226 > 100 µM | NCI-H522 > 100 µM | OVCAR-3 > 100 µM | OVCAR-4 > 100 µM | RXF 393 > 100 µM | SF-295 > 100 µM | SF-539 > 100 µM | SK-MEL-28 > 100 µM | SR > 100 µM | T47D > 100 µM | U-251 > 100 µM | UACC-62 > 100 µM

COc1ccccc1/C=C1/Sc2scc(CC(=O)Nc3ccccc3)[n+]2C1=O
inactive: ACHN 28.9 µM | HCC 2998 30.8 µM | HL-60 15 µM | HOP-62 34 µM | MCF7 31.4 µM | MDA-MB-435 28.4 µM | NCI-H226 20.3 µM | NCI-H522 20.3 µM | OVCAR-3 16.9 µM | OVCAR-4 21 µM | RXF 393 22.6 µM | SF-295 32.9 µM | SF-539 36.3 µM | SK-MEL-28 22.4 µM | SK-MEL-2 19.1 µM | U-251 33 µM | UACC-62 14.4 µM

O=c1o[nH]/c(=N/c2ccccc2)n1-c1ccccc1
inactive: ACHN > 100 µM | HCC 2998 93.3 µM | HL-60 > 100 µM | HOP-62 > 100 µM | MCF7 > 100 µM | Malme-3M > 100 µM | NCI-H226 > 100 µM | OVCAR-3 > 100 µM | OVCAR-4 > 100 µM | RXF 393 > 100 µM | SF-295 > 100 µM | SF-539 > 100 µM | SK-MEL-28 > 100 µM | SK-MEL-2 > 100 µM | SR > 100 µM | U-251 > 100 µM | UACC-62 > 100 µM

COc1ccc(/C=C\c2cc(OC)c3c(c2)OCO3)c(O)c1O
inactive: ACHN 11.2 µM | HCC 2998 21.5 µM | HL-60 2.8 µM | HOP-62 7.59 µM | Malme-3M 13.4 µM | NCI-H226 16.1 µM | NCI-H522 1.7 µM | OVCAR-3 4.78 µM | OVCAR-4 4.52 µM | RXF 393 3.94 µM | SF-295 8.3 µM | SF-539 2.08 µM | SK-MEL-28 5.65 µM | SK-MEL-2 8.53 µM | SR 3.78 µM | U-251 6.05 µM | UACC-62 3.33 µM

NNC(=O)/C(NC(=O)c1ccccc1)=C(\N)c1cccc([N+](=O)[O-])c1
inactive: ACHN > 100 µM | HCC 2998 > 100 µM | HL-60 > 100 µM | HOP-62 > 100 µM | Malme-3M > 100 µM | NCI-H226 > 100 µM | NCI-H522 > 100 µM | OVCAR-3 > 100 µM | OVCAR-4 > 100 µM | RXF 393 > 100 µM | SF-295 > 100 µM | SF-539 > 100 µM | SK-MEL-28 > 100 µM | SK-MEL-2 > 100 µM | SR > 100 µM | U-251 > 100 µM | UACC-62 > 100 µM

COC(=O)C(=O)C(C(C)=O)C(=O)NCc1ccccc1 (stereo not drawn)
inactive: ACHN > 100 µM | HCC 2998 > 100 µM | HL-60 > 100 µM | HOP-62 > 100 µM | Malme-3M > 100 µM | NCI-H226 > 100 µM | NCI-H522 > 100 µM | OVCAR-3 > 100 µM | OVCAR-4 > 100 µM | RXF 393 > 100 µM | SF-295 > 100 µM | SF-539 > 100 µM | SK-MEL-28 > 100 µM | SK-MEL-2 > 100 µM | SR > 100 µM | U-251 82.2 µM | UACC-62 > 100 µM

N#CSC#Cc1ccc(C#CSC#N)cc1
inactive: ACHN 16.5 µM | HCC 2998 17.6 µM | HL-60 54.8 µM | HOP-62 23 µM | MCF7 19.9 µM | MDA-MB-435 20.9 µM | Malme-3M 19.1 µM | NCI-H226 21.6 µM | NCI-H522 11.1 µM | OVCAR-3 19.3 µM | OVCAR-4 8.81 µM | RXF 393 18.7 µM | SF-295 20.9 µM | SF-539 20.9 µM | SK-MEL-28 26.2 µM | SK-MEL-2 20.2 µM | SR 51.5 µM | U-251 21.5 µM | UACC-62 18.1 µM

CC(=O)N1C=Cc2c(c(C)c3c([nH]c4ccccc43)c2C)C1
active: ACHN 1.09 µM
inactive: HL-60 23.1 µM | HOP-62 3.02 µM | MCF7 2.72 µM | MDA-MB-435 13 µM | Malme-3M 7.53 µM | NCI-H226 10.3 µM | NCI-H522 10.4 µM | OVCAR-3 1.74 µM | OVCAR-4 2.13 µM | RXF 393 16.3 µM | SF-295 8.22 µM | SF-539 5.27 µM | SK-MEL-28 15.3 µM | SK-MEL-2 12.3 µM | SR 34.2 µM | U-251 4.89 µM

Cc1ccc(/C=C2\Cc3cccc(C)c3C2=O)c(C(=O)O)c1
inactive: ACHN 28.7 µM | HCC 2998 39.1 µM | HL-60 85.7 µM | HOP-62 > 100 µM | MCF7 > 10 µM | Malme-3M > 100 µM | NCI-H226 > 100 µM | NCI-H522 22.3 µM | OVCAR-3 94.2 µM | OVCAR-4 21.1 µM | RXF 393 29.3 µM | SF-295 > 100 µM | SF-539 74.8 µM | SK-MEL-28 97.3 µM | SR 90.4 µM | T47D 42.7 µM | U-251 57.9 µM

CCCN(CCC)C(=S)N/N=C/c1cccc(C)n1
active: ACHN 0.177 µM | HL-60 < 0.01 µM | HOP-62 0.195 µM | MCF7 < 0.01 µM | MDA-MB-435 0.521 µM | Malme-3M 0.697 µM | NCI-H226 0.129 µM | NCI-H522 0.0194 µM | OVCAR-3 < 0.01 µM | OVCAR-4 < 0.01 µM | RXF 393 0.151 µM | SF-295 0.258 µM | SF-539 0.214 µM | SK-MEL-28 0.778 µM | SK-MEL-2 0.594 µM | SR 0.0571 µM | U-251 < 0.01 µM | UACC-62 0.303 µM

Cc1cc(Cl)ccc1NC(=O)C(=O)Cc1occc(=O)c1O
inactive: ACHN > 100 µM | HCC 2998 > 100 µM | HL-60 > 100 µM | HOP-62 > 100 µM | Malme-3M > 100 µM | NCI-H226 > 100 µM | NCI-H522 > 100 µM | OVCAR-4 > 100 µM | RXF 393 > 100 µM | SF-295 > 100 µM | SF-539 > 100 µM | SK-MEL-28 > 100 µM | SK-MEL-2 > 100 µM | SR > 100 µM | U-251 > 100 µM | UACC-62 > 100 µM
